Legend:
Type in all cases: in vivo
[1] = tested on: Ipomoea hederacea (IPOHE); assay: Post-emergence herbicidal glasshouse test on Ipomoea hederacea; conditions: post-emergence, 1000 g/h, evaluated after 13 days; for herbicidal damage, POST Application IPOHE: five point scale
Outline: (§1)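 Application rate 1000 g/h, formulated in acetone/water (50:50) with 0.5% Tween 20 and sprayed onto pots sown 1 day (pre-emergence) or 8 days (post-emergence) earlier. Evaluation at 13 days rated damage from 1 (0-19%) to 5 (80-100%).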

[2] = tested on: Echinochloa crus-galli (ECHCG); assay: Pre-emergence herbicidal glasshouse test on Echinochloa crus-galli; conditions: pre-emergence, 1000 g/h, evaluated after 13 days; for herbicidal damage, PRE Application ECHCG: five point scale
Outline: as §1

[3] = tested on: Amaranthus retoflexus (AMARE); assay: Pre-emergence herbicidal glasshouse test on Amaranthus retoflexus; conditions: pre-emergence, 1000 g/h, evaluated after 13 days; for herbicidal damage, PRE Application AMARE: five point scale
Outline: as §1

[4] = tested on: Alopecurus myosuroides (ALOMY); assay: Pre-emergence herbicidal glasshouse test on Alopecurus myosuroides; conditions: pre-emergence, 1000 g/h, evaluated after 13 days; for herbicidal damage, PRE Application ALOMY: five point scale
Outline: as §1

Setaria faberi (SETFA) [5] = assay: Post-emergence herbicidal glasshouse test on Setaria faberi; conditions: post-emergence, 1000 g/h, evaluated after 13 days; for herbicidal damage, POST Application SETFA: five point scale
Outline: as §1

Solanum nigrum (SOLNI) [6] = assay: Pre-emergence herbicidal glasshouse test on Solanum nigrum; conditions: pre-emergence, 1000 g/h, evaluated after 13 days; for herbicidal damage, PRE Application SOLNI: five point scale
Outline: as §1

[7] = tested on: Ipomoea hederacea (IPOHE); assay: Pre-emergence herbicidal glasshouse test on Ipomoea hederacea; conditions: pre-emergence, 1000 g/h, evaluated after 13 days; for herbicidal damage, PRE Application IPOHE: five point scale
Outline: as §1

Setaria faberi (SETFA) [8] = assay: Pre-emergence herbicidal glasshouse test on Setaria faberi; conditions: pre-emergence, 1000 g/h, evaluated after 13 days; for herbicidal damage, PRE Application SETFA: five point scale
Outline: as §1

[9] = tested on: Amaranthus retoflexus (AMARE); assay: Post-emergence herbicidal glasshouse test on Amaranthus retoflexus; conditions: post-emergence, 1000 g/h, evaluated after 13 days; for herbicidal damage, POST Application AMARE: five point scale
Outline: as §1

[10] = tested on: Alopecurus myosuroides (ALOMY); assay: Post-emergence herbicidal glasshouse test on Alopecurus myosuroides; conditions: post-emergence, 1000 g/h, evaluated after 13 days; for herbicidal damage, POST Application ALOMY: five point scale
Outline: as §1

Solanum nigrum (SOLNI) [11] = assay: Post-emergence herbicidal glasshouse test on Solanum nigrum; conditions: post-emergence, 1000 g/h, evaluated after 13 days; for herbicidal damage, POST Application SOLNI: five point scale
Outline: as §1

[12] = tested on: Echinochloa crus-galli (ECHCG); assay: Post-emergence herbicidal glasshouse test on Echinochloa crus-galli; conditions: post-emergence, 1000 g/h, evaluated after 13 days; for herbicidal damage, POST Application ECHCG: five point scale
Outline: as §1

SMILES	herbicidal damage, POST Application IPOHE [1]	herbicidal damage, PRE Application ECHCG [2]	herbicidal damage, PRE Application AMARE [3]	herbicidal damage, PRE Application ALOMY [4]	herbicidal damage, POST Application SETFA (Setaria faberi (SETFA) [5])	herbicidal damage, PRE Application SOLNI (Solanum nigrum (SOLNI) [6])	herbicidal damage, PRE Application IPOHE [7]	herbicidal damage, PRE Application SETFA (Setaria faberi (SETFA) [8])	POST Application IPOHE herbicidal damage (five point scale) [1]	PRE Application ECHCG herbicidal damage (five point scale) [2]	PRE Application AMARE herbicidal damage (five point scale) [3]	PRE Application ALOMY herbicidal damage (five point scale) [4]	POST Application SETFA herbicidal damage (five point scale) (Setaria faberi (SETFA) [5])	PRE Application SOLNI herbicidal damage (five point scale) (Solanum nigrum (SOLNI) [6])	PRE Application IPOHE herbicidal damage (five point scale) [7]	PRE Application SETFA herbicidal damage (five point scale) (Setaria faberi (SETFA) [8])	POST Application AMARE herbicidal damage (five point scale) [9]	POST Application ALOMY herbicidal damage (five point scale) [10]	POST Application SOLNI herbicidal damage (five point scale) (Solanum nigrum (SOLNI) [11])	POST Application ECHCG herbicidal damage (five point scale) [12]	also measured
Cn1ncc(-c2cc(Br)c(Br)cc2S(C)(=O)=O)c(O)c1=O [Compound 1.160]	5 (5=80-100% damage)	5 (5=80-100% damage)	5 (5=80-100% damage)	1 (1=0-19% damage)	4 (4=60-79% damage)	4 (4=60-79% damage)	2 (2=20-39% damage)	1 (1=0-19% damage)	–	–	–	–	–	–	–	–	–	–	–	–	herbicidal damage, POST Application AMARE [9]: 5 (5=80-100% damage); herbicidal damage, POST Application ALOMY [10]: 3 (3=40-59% damage); herbicidal damage, POST Application SOLNI (Solanum nigrum (SOLNI) [11]): 5 (5=80-100% damage); herbicidal damage, POST Application ECHCG [12]: 5 (5=80-100% damage)
Cn1ncc(-c2c(S(C)(=O)=O)ccc(Br)c2Br)c(O)c1=O [Compound 1.161]	2 (2=20-39% damage)	1 (1=0-19% damage)	3 (3=40-59% damage)	1 (1=0-19% damage)	4 (4=60-79% damage)	1 (1=0-19% damage)	1 (1=0-19% damage)	1 (1=0-19% damage)	–	–	–	–	–	–	–	–	–	–	–	–	herbicidal damage, POST Application AMARE [9]: 5 (5=80-100% damage); herbicidal damage, POST Application ALOMY [10]: 3 (3=40-59% damage); herbicidal damage, POST Application SOLNI (Solanum nigrum (SOLNI) [11]): 4 (4=60-79% damage); herbicidal damage, POST Application ECHCG [12]: 4 (4=60-79% damage)
C#CCn1ncc(-c2ccc(S(C)(=O)=O)c(C3=NOCC3)c2C)c(O)c1=O [Compound 1.163]	5 (5=80-100% damage)	5 (5=80-100% damage)	5 (5=80-100% damage)	5 (5=80-100% damage)	5 (5=80-100% damage)	5 (5=80-100% damage)	4 (4=60-79% damage)	5 (5=80-100% damage)	–	–	–	–	–	–	–	–	–	–	–	–	herbicidal damage, POST Application AMARE [9]: 5 (5=80-100% damage); herbicidal damage, POST Application ALOMY [10]: 5 (5=80-100% damage); herbicidal damage, POST Application SOLNI (Solanum nigrum (SOLNI) [11]): 5 (5=80-100% damage); herbicidal damage, POST Application ECHCG [12]: 5 (5=80-100% damage)
Cn1ncc(-c2cc3cc(N4CCOCC4)cnc3nc2C(F)(F)F)c(O)c1=O [Compound 1.164]	5 (5=80-100% damage)	4 (4=60-79% damage)	3 (3=40-59% damage)	1 (1=0-19% damage)	5 (5=80-100% damage)	2 (2=20-39% damage)	4 (4=60-79% damage)	2 (2=20-39% damage)	–	–	–	–	–	–	–	–	–	–	–	–	herbicidal damage, POST Application AMARE [9]: 5 (5=80-100% damage); herbicidal damage, POST Application ALOMY [10]: 1 (1=0-19% damage); herbicidal damage, POST Application SOLNI (Solanum nigrum (SOLNI) [11]): 5 (5=80-100% damage); herbicidal damage, POST Application ECHCG [12]: 5 (5=80-100% damage)
C=CCn1ncc(-c2ccccc2S(C)(=O)=O)c(O)c1=O [Compound 2.001]	–	–	–	–	–	–	–	–	5 (5=80-100% damage)	5 (5=80-100% damage)	5 (5=80-100% damage)	5 (5=80-100% damage)	5 (5=80-100% damage)	5 (5=80-100% damage)	5 (5=80-100% damage)	5 (5=80-100% damage)	5 (5=80-100% damage)	5 (5=80-100% damage)	5 (5=80-100% damage)	5 (5=80-100% damage)	–
CC[S+]([O-])c1ccccc1-c1cnn(COC)c(=O)c1O (stereo not drawn) [Compound 2.003]	–	–	–	–	–	–	–	–	4 (4=60-79% damage)	4 (4=60-79% damage)	5 (5=80-100% damage)	3 (3=40-59% damage)	4 (4=60-79% damage)	1 (1=0-19% damage)	1 (1=0-19% damage)	4 (4=60-79% damage)	5 (5=80-100% damage)	3 (3=40-59% damage)	5 (5=80-100% damage)	5 (5=80-100% damage)	–
CCS(=O)(=O)c1ccccc1-c1cnn(COC)c(=O)c1O [Compound 2.004]	–	–	–	–	–	–	–	–	5 (5=80-100% damage)	5 (5=80-100% damage)	5 (5=80-100% damage)	5 (5=80-100% damage)	5 (5=80-100% damage)	5 (5=80-100% damage)	4 (4=60-79% damage)	5 (5=80-100% damage)	5 (5=80-100% damage)	3 (3=40-59% damage)	5 (5=80-100% damage)	5 (5=80-100% damage)	–
COCn1ncc(-c2ccc(Cl)cc2S(C)(=O)=O)c(O)c1=O [Compound 2.005]	–	–	–	–	–	–	–	–	5 (5=80-100% damage)	5 (5=80-100% damage)	5 (5=80-100% damage)	5 (5=80-100% damage)	5 (5=80-100% damage)	5 (5=80-100% damage)	5 (5=80-100% damage)	5 (5=80-100% damage)	5 (5=80-100% damage)	5 (5=80-100% damage)	5 (5=80-100% damage)	5 (5=80-100% damage)	–
COCn1ncc(-c2ccc(F)cc2S(C)(=O)=O)c(O)c1=O [Compound 2.006]	–	–	–	–	–	–	–	–	5 (5=80-100% damage)	5 (5=80-100% damage)	5 (5=80-100% damage)	5 (5=80-100% damage)	5 (5=80-100% damage)	5 (5=80-100% damage)	5 (5=80-100% damage)	5 (5=80-100% damage)	5 (5=80-100% damage)	5 (5=80-100% damage)	5 (5=80-100% damage)	5 (5=80-100% damage)	–
COc1ccc(Cn2ncc(-c3ccc(Cl)cc3S(C)(=O)=O)c(O)c2=O)cc1 [Compound 2.008]	–	–	–	–	–	–	–	–	5 (5=80-100% damage)	5 (5=80-100% damage)	5 (5=80-100% damage)	4 (4=60-79% damage)	5 (5=80-100% damage)	5 (5=80-100% damage)	3 (3=40-59% damage)	2 (2=20-39% damage)	5 (5=80-100% damage)	3 (3=40-59% damage)	5 (5=80-100% damage)	5 (5=80-100% damage)	–
C#Cn1ncc(-c2ccc(C(F)(F)F)cc2S(C)(=O)=O)c(O)c1=O [Compound 2.010]	–	–	–	–	–	–	–	–	5 (5=80-100% damage)	5 (5=80-100% damage)	5 (5=80-100% damage)	5 (5=80-100% damage)	5 (5=80-100% damage)	5 (5=80-100% damage)	5 (5=80-100% damage)	5 (5=80-100% damage)	5 (5=80-100% damage)	5 (5=80-100% damage)	5 (5=80-100% damage)	5 (5=80-100% damage)	–
